From PMC7577350 (ACS chemical biology, 2013)
Read-outs that look alike come from different tables or passages of the source. Numbered stars: 1 amine (or outer) side, 2 acyl side, 3 side chain; on linkers, the order of the positions; unused ones are H or OH. Bridge positions count the residues as written; N and C are the ends. Square brackets hold non-standard residues; d marks the D form. Peptide text beside a SMILES is read from it. Nle(6-ylidene) = O=C([C@H](CCCC=[*:3])N[*:1])[*:2]; Gly(pent-4-enyl) = C=CCCC[C@H](N)C(=O)O

Legend:
[1] = target: T1, HIV-1 IN (Human immunodeficiency virus type 1 group M subtype B, UniProt P04585); experiment: Integrase assay, 3′-end processing reaction; type: biochemical
[2] = target: T1, HIV-1 IN; experiment: Integrase assay, strand transfer reaction; type: biochemical
[3] = system: HIV-1 (NL4-3 strain); type: cell-based; conditions: read-out: EC50 (μM) p24 assay, MT-4 cells
[4] = system: HIV-1 (NL4-3 strain); experiment: MTT anti-HIV assay; type: cell-based; conditions: read-out: EC50 (μM) MTT assay; MT-4 cells, HIV-1 NL4-3, Table 3
[5] = MTT cytotoxicity assay; type: cell-based
[6] = system: HIV-1 NL4-3; experiment: MT-4 Luc assay; type: cell-based; conditions: MT-4 Luc cells; for concentrations at which significant anti-HIV activity was shown: luciferase signal
[7] = CC50 (μM) MTT assay, mock infected MT-4 cells, Table 3
[8] = both 3′-end processing and strand transfer reactions
[9] = CC50 (μM) MTT assay, mock infected MT-4 cells, Table 4

Compound: CC[C@H](C)[C@H](NC(=O)[C@H](C)NC(=O)[C@H](CCC(=O)O)NC(C)=O)C(=O)N[C@H](C(=O)N[C@@H](CCCNC(=N)N)C(=O)N[C@H](C(=O)N[C@@H](CC(C)C)C(=O)N[C@@H](CCC(N)=O)C(=O)N[C@@H](CCC(N)=O)C(=O)N[C@@H](CC(C)C)C(=O)N[C@@H](CC(C)C)C(=O)N[C@@H](Cc1ccccc1)C(=O)N[C@H](C(=O)N[C@@H](Cc1c[nH]cn1)C(=O)N[C@@H](Cc1ccccc1)C(=O)N[C@@H](CCCNC(=N)N)C(=O)N[C@H](C(=O)NCC(N)=O)[C@@H](C)CC)[C@@H](C)CC)[C@@H](C)CC)[C@@H](C)CC [compound 1]
- IC50 ([1]; IC50 3′-end processing, Table 2): 2.6 ± 0.2 µM
- IC50 ([1]; IC50 (μM) 3′-end processing, Table 3 batch): 1.62 ± 0.26 µM
- IC50 ([1]; IC50 (μM) 3′-end processing, Table 4 batch): 2 ± 0.2 µM
- IC50 ([2]; IC50 (μM) strand transfer, Table 3 batch): 1.34 ± 0.2 µM
- IC50 ([2]; IC50 (μM) strand transfer, Table 4 batch): 2.2 ± 0.2 µM
- IC50 ([2]; IC50 strand transfer, Table 2): 1.1 ± 0.08 µM
- EC50 ([3]; HIV-1 NL4-3, Table 3): > 10 µM
- EC50 ([3]; HIV-1 NL4-3, Table 4): > 20 µM
- EC50 [4]: > 10 µM
- CC50 [5, 7]: > 10 µM
- anti-HIV activity at concentrations below 10 μM ([6]; below 10 μM): no significant anti-HIV activity

Compound: CC[C@H](C)[C@H](NC(=O)[C@H](C)NC(=O)[C@H](CCC(=O)O)NC(C)=O)C(=O)N[C@H]1CCCC=CCCC[C@@H](C(=O)N[C@@H](CCC(N)=O)C(=O)N[C@@H](CC(C)C)C(=O)N[C@@H](CC(C)C)C(=O)N[C@@H](Cc2ccccc2)C(=O)N[C@H](C(=O)N[C@@H](Cc2c[nH]cn2)C(=O)N[C@@H](Cc2ccccc2)C(=O)N[C@@H](CCCNC(=N)N)C(=O)N[C@H](C(=O)NCC(=O)N[C@@H](CCCNC(=N)N)C(=O)N[C@@H](CCCNC(=N)N)C(=O)N[C@@H](CCCNC(=N)N)C(=O)N[C@@H](CCCNC(=N)N)C(N)=O)[C@@H](C)CC)[C@@H](C)CC)NC(=O)[C@H](CC(C)C)NC(=O)[C@H]([C@@H](C)CC)NC(=O)[C@H](CCCNC(=N)N)NC1=O [compound 20] (Ac-EAI[Nle(6-ylidene)]RIL[Nle(6-ylidene)]QLLFIHFRIGRRRR-NH2; staple 4-8)
- × higher inhibition than compound 6S [1, 8]: 3–6 ×
- CC50 [5, 9]: 16 µM

Compound: CC[C@H](C)[C@H](NC(=O)[C@H](C)NC(=O)[C@H](CCC(=O)O)NC(C)=O)C(=O)N[C@H]1CCCC=CCCC[C@@H](C(=O)N[C@@H](CCC(N)=O)C(=O)N[C@@H](CC(C)C)C(=O)N[C@@H](CC(C)C)C(=O)N[C@@H](Cc2ccccc2)C(=O)N[C@H](C(=O)N[C@@H](Cc2c[nH]cn2)C(=O)N[C@@H](Cc2ccccc2)C(=O)N[C@@H](CCCNC(=N)N)C(=O)N[C@H](C(=O)NCC(=O)N[C@@H](CCCNC(=N)N)C(=O)N[C@@H](CCCNC(=N)N)C(=O)N[C@@H](CCCNC(=N)N)C(=O)N[C@@H](CCCNC(=N)N)C(=O)N[C@@H](CCCNC(=N)N)C(=O)N[C@@H](CCCNC(=N)N)C(=O)N[C@@H](CCCNC(=N)N)C(=O)N[C@@H](CCCNC(=N)N)C(N)=O)[C@@H](C)CC)[C@@H](C)CC)NC(=O)[C@H](CC(C)C)NC(=O)[C@H]([C@@H](C)CC)NC(=O)[C@H](CCCNC(=N)N)NC1=O [compound 17] (Ac-EAI[Nle(6-ylidene)]RIL[Nle(6-ylidene)]QLLFIHFRIGRRRRRRRR-NH2; staple 4-8)
- CC50 [5, 7]: 7.04 µM
- CC50 [5, 9]: 6.9 µM
- concentrations at which significant anti-HIV activity was shown [6]: above 1.25 μM

Compound: CC[C@H](C)[C@H](NC(=O)[C@H](C)NC(=O)[C@H](CCC(=O)O)NC(C)=O)C(=O)N[C@H]1CCCC=CCCC[C@@H](C(=O)N[C@@H](CCC(N)=O)C(=O)N[C@@H](CC(C)C)C(=O)N[C@@H](CC(C)C)C(=O)N[C@@H](Cc2ccccc2)C(=O)N[C@H](C(=O)N[C@@H](Cc2c[nH]cn2)C(=O)N[C@@H](Cc2ccccc2)C(=O)N[C@@H](CCCNC(=N)N)C(=O)N[C@H](C(=O)NCC(=O)N[C@@H](CCCNC(=N)N)C(=O)N[C@@H](CCC(=O)O)C(=O)N[C@@H](CCCNC(=N)N)C(=O)N[C@@H](CCC(=O)O)C(=O)N[C@@H](CCCNC(=N)N)C(=O)N[C@@H](CCC(=O)O)C(=O)N[C@@H](CCCNC(=N)N)C(=O)N[C@@H](CCC(=O)O)C(N)=O)[C@@H](C)CC)[C@@H](C)CC)NC(=O)[C@H](CC(C)C)NC(=O)[C@H]([C@@H](C)CC)NC(=O)[C@H](CCCNC(=N)N)NC1=O [compound 18] (Ac-EAI[Nle(6-ylidene)]RIL[Nle(6-ylidene)]QLLFIHFRIGRERERERE-NH2; staple 4-8)
- CC50 [5, 7]: > 10 µM
- concentrations at which significant anti-HIV activity was shown [6]: above 5 μM

Compound: CC[C@H](C)[C@H](NC(=O)[C@H](C)NC(=O)[C@H](CCC(=O)O)NC(C)=O)C(=O)N[C@H]1CCCC=CCCC[C@@H](C(=O)N[C@@H](CCC(N)=O)C(=O)N[C@@H](CC(C)C)C(=O)N[C@@H](CC(C)C)C(=O)N[C@@H](Cc2ccccc2)C(=O)N[C@H](C(=O)N[C@@H](Cc2c[nH]cn2)C(=O)N[C@@H](Cc2ccccc2)C(=O)N[C@@H](CCCNC(=N)N)C(=O)N[C@H](C(=O)NCC(=O)N[C@@H](CCCNC(=N)N)C(=O)N[C@@H](CCCNC(=N)N)C(=O)N[C@@H](CCCNC(=N)N)C(=O)N[C@@H](CCCNC(=N)N)C(=O)N[C@@H](CCCNC(=N)N)C(=O)N[C@@H](CCCNC(=N)N)C(=O)N[C@@H](CCCNC(=N)N)C(N)=O)[C@@H](C)CC)[C@@H](C)CC)NC(=O)[C@H](CC(C)C)NC(=O)[C@H]([C@@H](C)CC)NC(=O)[C@H](CCCNC(=N)N)NC1=O [compound 23] (Ac-EAI[Nle(6-ylidene)]RIL[Nle(6-ylidene)]QLLFIHFRIGRRRRRRR-NH2; staple 4-8)
- CC50 [5, 9]: 12 µM

Compound: CC[C@H](C)[C@H](NC(=O)[C@H](C)NC(=O)[C@H](CCC(=O)O)NC(C)=O)C(=O)N[C@H]1CCCC=CCCC[C@@H](C(=O)N[C@@H](CCC(N)=O)C(=O)N[C@@H](CC(C)C)C(=O)N[C@@H](CC(C)C)C(=O)N[C@@H](Cc2ccccc2)C(=O)N[C@H](C(=O)N[C@@H](Cc2c[nH]cn2)C(=O)N[C@@H](Cc2ccccc2)C(=O)N[C@@H](CCCNC(=N)N)C(=O)N[C@H](C(=O)NCC(=O)N[C@@H](CCCNC(=N)N)C(=O)N[C@@H](CCCNC(=N)N)C(=O)N[C@@H](CCCNC(=N)N)C(=O)N[C@@H](CCCNC(=N)N)C(=O)N[C@@H](CCCNC(=N)N)C(N)=O)[C@@H](C)CC)[C@@H](C)CC)NC(=O)[C@H](CC(C)C)NC(=O)[C@H]([C@@H](C)CC)NC(=O)[C@H](CCCNC(=N)N)NC1=O [compound 21] (Ac-EAI[Nle(6-ylidene)]RIL[Nle(6-ylidene)]QLLFIHFRIGRRRRR-NH2; staple 4-8)
- × higher inhibition than compound 6S [1, 8]: 3–6 ×
- CC50 [5, 9]: 15 µM

Compound: C=CCCC[C@H](NC(=O)[C@H](CC(C)C)NC(=O)[C@@H](NC(=O)[C@H](CCCNC(=N)N)NC(=O)[C@H](CCCC=C)NC(=O)[C@@H](NC(=O)[C@H](C)NC(=O)[C@H](CCC(=O)O)NC(C)=O)[C@@H](C)CC)[C@@H](C)CC)C(=O)N[C@@H](CCC(N)=O)C(=O)N[C@@H](CC(C)C)C(=O)N[C@@H](CC(C)C)C(=O)N[C@@H](Cc1ccccc1)C(=O)N[C@H](C(=O)N[C@@H](Cc1c[nH]cn1)C(=O)N[C@@H](Cc1ccccc1)C(=O)N[C@@H](CCCNC(=N)N)C(=O)N[C@H](C(=O)NCC(=O)N[C@@H](CCCNC(=N)N)C(=O)N[C@@H](CCC(=O)O)C(=O)N[C@@H](CCCNC(=N)N)C(=O)N[C@@H](CCC(=O)O)C(=O)N[C@@H](CCCNC(=N)N)C(=O)N[C@@H](CCC(=O)O)C(=O)N[C@@H](CCCNC(=N)N)C(=O)N[C@@H](CCC(=O)O)C(N)=O)[C@@H](C)CC)[C@@H](C)CC [compound 19] (Ac-EAI[Gly(pent-4-enyl)]RIL[Gly(pent-4-enyl)]QLLFIHFRIGRERERERE-NH2)
- CC50 [5, 7]: > 10 µM
- concentrations at which significant anti-HIV activity was shown [6]: 10 µM

Compound: CC[C@H](C)[C@H](NC(=O)[C@H](C)NC(=O)[C@H](CCC(=O)O)NC(C)=O)C(=O)N[C@H](C(=O)N[C@@H](CCCNC(=N)N)C(=O)N[C@H](C(=O)N[C@@H](CC(C)C)C(=O)N[C@@H](CCC(N)=O)C(=O)N[C@@H](CCC(N)=O)C(=O)N[C@@H](CC(C)C)C(=O)N[C@@H](CC(C)C)C(=O)N[C@@H](Cc1ccccc1)C(=O)N[C@H](C(=O)N[C@@H](Cc1c[nH]cn1)C(=O)N[C@@H](Cc1ccccc1)C(=O)N[C@@H](CCCNC(=N)N)C(=O)N[C@H](C(=O)NCC(=O)N[C@@H](CCCNC(=N)N)C(=O)N[C@@H](CCCNC(=N)N)C(=O)N[C@@H](CCCNC(=N)N)C(=O)N[C@@H](CCCNC(=N)N)C(=O)N[C@@H](CCCNC(=N)N)C(=O)N[C@@H](CCCNC(=N)N)C(=O)N[C@@H](CCCNC(=N)N)C(=O)N[C@@H](CCCNC(=N)N)C(N)=O)[C@@H](C)CC)[C@@H](C)CC)[C@@H](C)CC)[C@@H](C)CC [compound 2]
- inhibitory levels × higher than those of compound 1 [1, 8]: approximately 30 ×
- CC50 [5]: 5.91 µM
- concentrations at which significant anti-HIV activity was shown [6]: above 2.5 μM

Compound: CC[C@H](C)[C@H](NC(=O)[C@H](C)NC(=O)[C@H](CCC(=O)O)NC(C)=O)C(=O)N[C@H]1CCCC=CCCC[C@@H](C(=O)N[C@@H](CCC(N)=O)C(=O)N[C@@H](CC(C)C)C(=O)N[C@@H](CC(C)C)C(=O)N[C@@H](Cc2ccccc2)C(=O)N[C@H](C(=O)N[C@@H](Cc2c[nH]cn2)C(=O)N[C@@H](Cc2ccccc2)C(=O)N[C@@H](CCCNC(=N)N)C(=O)N[C@H](C(=O)NCC(=O)N[C@@H](CCCNC(=N)N)C(=O)N[C@@H](CCCNC(=N)N)C(=O)N[C@@H](CCCNC(=N)N)C(=O)N[C@@H](CCCNC(=N)N)C(=O)N[C@@H](CCCNC(=N)N)C(=O)N[C@@H](CCCNC(=N)N)C(N)=O)[C@@H](C)CC)[C@@H](C)CC)NC(=O)[C@H](CC(C)C)NC(=O)[C@H]([C@@H](C)CC)NC(=O)[C@H](CCCNC(=N)N)NC1=O [compound 22] (Ac-EAI[Nle(6-ylidene)]RIL[Nle(6-ylidene)]QLLFIHFRIGRRRRRR-NH2; staple 4-8)
- × higher inhibitory levels than compounds 20 and 21 ([1]; both reactions): 2 ×
- CC50 [5, 9]: 13 µM
